Results from patent US5474988A, “5-phenylpyrrolo-1,4-benzoxazine and 5-phenylpyrrolo-1,4-benzothiazine compounds, process and intermediates for their production and pharmaceutical compositions containing them” (Kali-Chemie Pharma GmbH, priority 1993, dated 1995).

Legend:
[1] = test system: cutaneous histamine induced anaphylactoid reactions; assay: inhibition of the anaphylactoid cutaneous reaction induced by histamine; format: in vivo, Sprague-Dawley rats; details: Rattus norvegicus, po, 0.5 h; 2 × 10^-5 mole/kg p.o., one hour before histamine; assessed 30 minutes after provocation; read-out: Inhibitory action against cutaneous histamine induced anaphylactoid reactions in rats, % inhibition
Experimental: 1. Determination of the inhibition of the anaphylactoid cutaneous reaction induced by histamine.
The inhibition of the anaphylactoid cutaneous reaction induced by histamine was determined in Sprague-Dawley rats having body weights of 150-180 g.
In order to determine the histamine-induced anaphylactoid skin reaction, 50 μl of a physiological saline solution containing 0.8 mg/ml of histamine were injected into the animals intradermally on one flank. Immediately afterward, a solution of 26.4 mg/kg of a blue dye (Evan's Blue) was administered i.v. to the animals.
The test substances were dissolved in distilled water which contains 1% by volume of dimethylformamide and 1% by volume of Tween®20 (=polyoxyethylene(20) sorbitan monolaurate). One hour before the histamine injection, each animal received 2×10^-5 mol/kg of test substance, in each case administered orally in 0.5 ml of solution. A control group received only the solvent for comparison.
The histamine-induced anaphylactoid reactions which manifested themselves by edema formation, swelling and exudation of blue dye are assessed 30 minutes after provocation by the histamine injection. This is carried out by visual determination of the extent of the exudation of blue dye at the sites of edema formation. With the aid of comparison scales, the percentage inhibition of the anaphylactoid reactions produced by the test substances is determined in comparison with the reactions of the control animals not treated with test substance.
The results obtained with compounds of the formula I by the above test method are reproduced in the following table A. The example numbers given as identifiers for the compounds of formula I refer to the subsequent preparative examples.

[2] = test system: male mice; details: mouse, in vivo, po, 1440 min
Experimental: 2. Determination of the minimum toxic dose.
Maximum doses of 300 mg/kg of the test substance were administered orally to male mice each weighing 20-25 g. The animals were carefully observed for symptoms of toxicity for 3 hours. All symptoms and deaths were additionally recorded over a period of 24 hours after administration. Associated symptoms were likewise observed and recorded. If death or severely toxic symptoms were observed, increasingly lower doses were administered to further mice. The lowest dose which caused death or severely toxic symptoms is indicated as the minimum toxic dose in the following Table B: […]

[3] = test system: P.A.F.-induced aggregation of blood platelets; assay: anti-P.A.F. action in vitro (P.A.F.-induced platelet aggregation); format: cell-based; details: Oryctolagus cuniculus, 10^-5 mole/liter, read-out: Anti-P.A.F. activity in vitro, % inhibition of the P.A.F.-induced aggregation of blood platelets from rabbit blood
Summary of the method: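 Washed rabbit platelets (4×10^9/ml stock suspension, aspirin-lysine treated) in modified Tyrode buffer pH 7.4 with 1.3 mM CaCl2 and gelatine; test substance at 10^-5 mol/l final, 90 s preincubation before P.A.F. Aggregation followed 4-5 min by aggregometer; % inhibition of P.A.F.-induced aggregation increase calculated.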

[4] = test system: 5-lipoxygenase; assay: inhibition of 5-lipoxygenase activity in polymorphonuclear rat leucocytes (LTB4 formation); format: cell-based; details: 10^-5 mol/l; 22° C.
Summary of the method: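 Thioglycolate-elicited peritoneal PMNs from male Sprague-Dawley rats (0.5×10^6 cells) preincubated 15 min at 22 °C with 10 μM compound in HEPES-buffered HBSS, then stimulated with 5 μM calcimycin for 10 min. LTB4 quantified by reverse-phase HPLC at 270 nm; % inhibition versus solvent control.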

Cc1ccnc(N2CCN(CCC3Cn4c(-c5ccc(O)cc5)c(C)c5c(Cl)ccc(c54)O3)CC2)c1 (stereo not shown) [Example 19]
inhibition in vivo at 20 µmol/kg [1]: 45% | Minimum toxic dose [2]: > 300 mg/kg | inhibition at 10 µM [3]: 71% | In vitro inhibitory activity on LTB4 formation in rat PMNs stimulated by calcium ionophore A23187 [4]: 45%
